Test results reported in patent US20240277796A1, “METHODS FOR INHIBITING RAS” (Revolution Medicines, Inc., priority 2021, published 2024).

Columns and labels:
K-Ras G13C = K-Ras G13C (Homo sapiens, UniProt P01116, G13C); test: Raf-Ras (FRET or MOA) binding assay: disruption of BRAF RBD interaction with K-Ras G13C; conditions: with Cyclophilin A, TR-FRET; read-out: IC50 in the Raf-Ras (FRET or MOA) binding assay re: K-Ras G13C
Text: Disruption of B-Raf Ras-Binding Domain (BRAF^RBD) Interaction with K-Ras by Compounds of the Invention (Also Called a FRET Assay or an MOA Assay)
Note—The following protocol describes a procedure for monitoring disruption of K-Ras G12C (GMP-PNP) binding to BRAF^RBD by a compound of the invention. This protocol may also be executed substituting other Ras proteins or nucleotides.
The purpose of this biochemical assay was to measure the ability of test compounds to facilitate ternary complex formation between a nucleotide-loaded K-Ras isoform and Cyclophilin A; the resulting ternary complex disrupts binding to a BRAF^RBD construct, inhibiting K-Ras signaling through a RAF effector. Data was reported as IC50 values.
In assay buffer containing 25 mM HEPES pH 7.3, 0.002% Tween20, 0.1% BSA, 100 mM NaCl and 5 mM MgCl2, tagless Cyclophilin A, His 6-K-Ras-GMPPNP, and GST-BRAF^RBD were combined in a 384-well assay plate at final concentrations of 25 μM, 12.5 nM and 50 nM, respectively. Compound was present in plate wells as a 10-point 3-fold dilution series starting at a final concentration of 30 μM. […] TR-FRET signal was read on a microplate reader (Ex 320 nm, Em 665/615 nm). […]

SW1573 [1] = conditions: Canon et al., Nature 575:217-223 (2019); cited from earlier work
SW1573 [2] = conditions: Canon et al., Nature 575:217-223 (2019); cited from earlier work; remark: listed apart in the source
AsPC-1 (K-Ras G12D) = test: pERK potency assay, AsPC-1; type: cell-based; conditions: Homo sapiens, ASPC1, read-out: IC50 in the pERK potency assay with respect to AsPC-1 (K-Ras G12D)
Text: The purpose of this assay was to measure the ability of test compounds to inhibit K-Ras in cells. Activated K-Ras induces increased phosphorylation of ERK at Threonine 202 and Tyrosine 204 (pERK). This procedure measures a decrease in cellular pERK in response to test compounds. The procedure described below in NCI-H358 cells is applicable to K-Ras G12C.
Note: This protocol may be executed substituting other cell lines to characterize inhibitors of other RAS variants, including, for example, AsPC-1 (K-Ras G12D), Capan-1 (K-Ras G12V), or NCI-H1355 (K-Ras G13C).
NCI-H358 cells were grown and maintained using media and procedures recommended by the ATCC. On the day prior to compound addition, cells were plated in 384-well cell culture plates (40 μl/well) and grown overnight in a 37° C., 5% CO2 incubator. Test compounds were prepared in 10, 3-fold dilutions in DMSO, with a high concentration of 10 mM. […]
In some experiments, cellular pERK level was determined using the AlphaLISA SureFire Ultra p-ERK1/2 Assay Kit (PerkinElmer). […] Signal was read on an Envision plate reader (PerkinElmer) using standard AlphaLISA settings. […] Signal was plotted vs. the decadal logarithm of compound concentration, and IC50 was determined by fitting a 4-parameter sigmoidal concentration response model.

Chain of K-Ras G13C (P01116 1-188 isoform P01116-2 G13C): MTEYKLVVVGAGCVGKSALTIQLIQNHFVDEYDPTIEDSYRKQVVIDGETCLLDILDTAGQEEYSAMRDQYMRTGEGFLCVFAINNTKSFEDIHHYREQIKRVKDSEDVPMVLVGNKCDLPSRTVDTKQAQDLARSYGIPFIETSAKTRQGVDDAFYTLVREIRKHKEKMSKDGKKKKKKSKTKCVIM
Chain of K-Ras G13C (P62937 whole entry partner, the tested form may be a part): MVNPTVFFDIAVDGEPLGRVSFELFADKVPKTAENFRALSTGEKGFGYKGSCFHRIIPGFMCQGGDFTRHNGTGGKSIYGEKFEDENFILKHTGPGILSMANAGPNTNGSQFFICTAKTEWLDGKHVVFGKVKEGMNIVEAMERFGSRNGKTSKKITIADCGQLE

Row | IC50 (K-Ras G13C) [µM] | Compound | IC50 (AsPC-1 (K-Ras G12D)) [µM] | also measured
1 | > 1.5 | CCn1c(-c2cccnc2[C@H](C)OC)c2c3cc(ccc31)-c1cccc(c1)C[C@H](NC(=O)[C@@H](COC1CN(C(=O)C#CC(C)(C)N(C)C)C1)N(C)C)C(=O)N1CCC[C@H](N1)C(=O)OCC(C)(C)C2 (atropisomer, axis not shown) [EA169] |  | 
2 | > 1.5 | CCn1c(-c2cccnc2[C@H](C)OC)c2c3cc(ccc31)N1CCS[C@@H](C[C@H](NC(=O)[C@@H](COC3CN(C(=O)C#CC(C)(C)N(C)C)C3)C(C)C)C(=O)N3CCC[C@H](N3)C(=O)OCC(C)(C)C2)C1 (atropisomer, axis not shown) [EA171] |  | 
3 |  | C=CC(=O)N1CCN(c2nc(=O)n(-c3c(C)ccnc3C(C)C)c3nc(-c4c(O)cccc4F)c(F)cc23)[C@@H](C)C1 [AMG510] |  | sensitivity of cell line SW1573 to the inhibitor (SW1573 [1]): insensitive; sensitivity of cell line to RAS inhibitor (SW1573 [2]): insensitive
4 |  | CCn1c(-c2cccnc2[C@H](C)OC)c2c3cc(ccc31)-c1csc(n1)C[C@H](NC(=O)[C@H](C1CCCC1)N1CC[C@]3(CCN(C(=O)[C@@]4(C)CN4)C3)C1)C(=O)N1CCC[C@H](N1)C(=O)OCC(C)(C)C2 [FA5] | > 8 | 
5 |  | CCn1c(-c2cccnc2[C@H](C)OC)c2c3cc(ccc31)-c1cc(cc(C(F)F)c1)C[C@H](NC(=O)[C@H](C(C)C)N1CC[C@]3(CCN(C(=O)[C@@H]4N[C@@H]4C4CC4)C3)C1)C(=O)N1CCC[C@H](N1)C(=O)OCC(C)(C)C2 [FA17] | > 8 | 
